Experiments:
[1] = tested on: Myzus persicae (green peach aphid); experiment: Example B1: Myzus persicae, mixed population, feeding/residual contact activity, preventive; details: foliar, 144 h, read-out: activity
[2] = tested on: Myzus persicae (green peach aphid); experiment: Example B13: drench activity against Myzus persicae; format: in vivo; details: 168 h, pea seedlings in field soil, 7 days after infestation, mortality
Method: Drench Activity Against Myzus persicae (Green Peach Aphid) Pea seedlings cultivated in field soil are treated as drench application and infested with a mixed population of M. persicae. 7 days after infestation, samples are checked for mortality.

[3] = tested on: Aphis craccivora (cowpea aphid); experiment: Example B10: Aphis craccivora, mixed population, systemic/feeding; format: in vivo; details: 144 h, roots of infested pea seedlings in test solution, 6 days, mortality
Source text: 6 days later, samples are checked for mortality.

[4] = tested on: Nilaparvata lugens (brown rice planthopper); experiment: Example B8: Nilaparvata lugens, larvicide, feeding/contact; format: in vivo; details: rice seedlings sprayed, N3 nymphs, 6-12 days after treatment
Method: Activity Against Nilaparvata lugens (Brown Rice Planthopper) (Larvicide, Feeding/Contact) Rice seedlings are treated with the diluted test solutions in a spray chamber. After drying, they are infested with 20 N3 nymphs (2 replicates). 6-12 days after the treatment samples are checked for mortality, growth regulation, and effects on the F1 generation.

[5] = tested on: Myzus persicae (green peach aphid); experiment: Example B2: Myzus persicae, mixed population, systemic/feeding activity, curative; details: 144 h, read-out: activity
[6] = tested on: Myzus persicae (green peach aphid); experiment: Example B16: Myzus persicae on pepper plants, feeding/residual contact activity; format: in vivo; details: 144 h, infested pepper plants sprayed, 6 days after treatment, mortality, read-out: activity against Myzus persicae
[7] = tested on: Aphis craccivora (cowpea aphid); experiment: Example B11: translaminar activity against Aphis craccivora; format: in vivo; details: 120 h, French bean leaves, aphids on lower side, upper side painted, 5 days, mortality
Method: Translaminar Activity Against Aphis craccivora (Cowpea Aphid) French bean leaves (Phaseolus vulgaris) are infested with about 20 mixed age individuals on the lower leaf side using clip cages. 1 day after the infestation, the upper side of the leaves is treated with the test solution by painting. 5 days later, samples are checked for mortality.

[8] = tested on: Tetranychus urticae (two-spotted spider mite); experiment: Example B4: Tetranychus urticae, mixed population, feeding/residual contact activity, preventive; format: in vivo; details: foliar, 192 h, bean leaf discs sprayed, 8 days, egg, larval and adult mortality
Source text: Activity Against Tetranychus urticae (Two-Spotted Spider Mite) (Mixed Population, Feeding/Residual Contact Activity, Preventive) Bean leaf discs on agar in 24-well microtiter plates are sprayed with test solutions. […] 8 days later, discs are checked for egg mortality, larval mortality, and adult mortality.

[9] = tested on: Thrips Tabaci (onion thrips); experiment: Example B3: Thrips tabaci, mixed population, feeding/residual contact activity, preventive; format: in vivo; details: foliar, 144 h, sunflower leaf discs sprayed, 6 days incubation, mortality

SMILES	pest or weed control at 400 ppm [1] [%]	pest or weed control at 200 ppm [6] [%]	pest or weed control at 400 ppm [8] [%]	other results
CCOC(=O)OC1=C(c2cc(C)ccc2C)C(=O)N(C)C12CCN(OC)CC2 [P1.1]				melting point: 96 to 110 °C
CCOCN1C(=O)C(c2c(C)cc(C)cc2C)=C(OC(=O)OCC)C12CCN(OC)CC2 [P1.4]	> 80	≥ 80		pest or weed control at 25 ppm [2]: > 80%; pest or weed control at 400 ppm [3]: > 80%; pest or weed control at 400 ppm [4]: > 80%; pest or weed control at 400 ppm [5]: > 80%; pest or weed control at 400 ppm [7]: > 80%
CCOC(=O)OC1=C(c2c(C)cc(C)cc2C)C(=O)N(CC2CC2)C12CCN(OC)CC2 [P1.5]		≥ 80	> 80	pest or weed control at 400 ppm [4]: > 80%; pest or weed control at 400 ppm [7]: > 80%
CCOC(=O)OC1=C(c2c(C)cc(C)cc2Cl)C(=O)N(C)C12CCN(OC)CC2 [P1.6]	> 80		> 80	
CCOC(=O)OC1=C(c2c(C)cc(C)cc2C)C(=O)N(C2CC2)C12CCN(OC)CC2 [P1.7]	> 80			
CCOC(=O)OC1=C(c2c(C)cc(C)cc2C)C(=O)N(CC)C12CCN(OC)CC2 [P1.8]				melting point: 101 to 103 °C
CCOC(=O)OC1=C(c2c(Cl)ccc(C)c2F)C(=O)N(C)C12CCN(OC)CC2 [P1.9]			> 80	
CCOC(=O)OC1=C(c2c(F)ccc(C)c2Cl)C(=O)N(C)C12CCN(OC)CC2 [P1.10]				pest or weed control at 400 ppm [5]: > 80%
CCOC(=O)OC1=C(c2c(C)cc(C)cc2Br)C(=O)N(C)C12CCN(OC)CC2 [P1.11]	> 80	≥ 80		pest or weed control at 25 ppm [2]: > 80%; pest or weed control at 400 ppm [3]: > 80%; pest or weed control at 400 ppm [4]: > 80%; pest or weed control at 400 ppm [5]: > 80%; pest or weed control at 400 ppm [7]: > 80%
CCOC(=O)OC1=C(c2c(C)cc(Br)cc2C)C(=O)N(C)C12CCN(OC)CC2 [P1.12]	> 80	≥ 80	> 80	
CCOC(=O)OC1=C(c2c(C)cccc2C)C(=O)N(C)C12CCN(OC)CC2 [P1.13]	> 80	≥ 80		
CCOC(=O)OC1=C(c2c(C)cc(C)cc2C)C(=O)N(CCCOC)C12CCN(OC)CC2 [P1.16]	> 80	≥ 80	> 80	
CCOC(=O)OC1=C(c2c(C)cc(C)cc2C)C(=O)N(CCOCOC)C12CCN(OC)CC2 [P1.17]	> 80			pest or weed control at 400 ppm [5]: > 80%
CCOC(=O)OC1=C(c2cc(C)c(C)cc2Br)C(=O)N(C)C12CCN(OC)CC2 [P1.20]				melting point: 158 to 159 °C
CCOC(=O)OC1=C(c2c(C)ccc(C)c2C)C(=O)N(C)C12CCN(OC)CC2 [P1.21]		≥ 80	> 80	
CCOC(=O)OC1=C(c2cc(C)c(C)cc2Cl)C(=O)N(C)C12CCN(OC)CC2 [P1.22]				melting point: 149 to 150 °C
CCOC(=O)OC1=C(c2ccc(C)cc2C)C(=O)N(C)C12CCN(OC)CC2 [P1.25]	> 80	≥ 80	> 80	
CCOC(=O)OC1=C(c2c(C)cc(C)cc2C)C(=O)N(CC2CCCO2)C12CCN(OC)CC2 (centres unmarked) [P1.26]			> 80	
CCOC(=O)OC1=C(c2c(C)ccc(Cl)c2C)C(=O)N(C)C12CCN(OC)CC2 [P1.27]	> 80	≥ 80		
CCOC(=O)OC1=C(c2cc(C)c(Cl)cc2C)C(=O)N(C)C12CCN(OC)CC2 [P1.28]				pest or weed control at 400 ppm [9]: > 80%
CCOC(=O)OC1=C(c2c(C)cc(Cl)cc2C)C(=O)N(C)C12CCN(OC)CC2 [P1.29]	> 80	≥ 80		
CON1CCC2(CC1)C(O)=C(c1cc(C)ccc1C)C(=O)N2C [P2.1]				melting point: 121 to 123 °C
CON1CCC2(CC1)C(O)=C(c1ccc(Cl)cc1Cl)C(=O)N2CC(F)F [P2.4]	> 80			
COCCN1C(=O)C(c2c(C)cc(C)cc2C)=C(O)C12CCN(OC)CC2 [P2.7]	> 80			pest or weed control at 25 ppm [2]: > 80%; pest or weed control at 400 ppm [3]: > 80%; pest or weed control at 400 ppm [4]: > 80%; pest or weed control at 400 ppm [7]: > 80%
CON1CCC2(CC1)C(O)=C(c1c(C)cc(C)cc1C)C(=O)N2CC1CC1 [P2.8, 1-Cyclopropylmethyl-4-hydroxy-8-methoxy-3-(2,4,6-trimethyl-phenyl)-1,8-diaza-spiro[4.5]dec-3-en-2-one]				melting point: 223 to 225 °C

SMILES	pest or weed control at 400 ppm [1] [%]	pest or weed control at 200 ppm [6] [%]	pest or weed control at 400 ppm [8] [%]	other results
CON1CCC2(CC1)C(O)=C(c1c(C)cc(C)cc1Cl)C(=O)N2C [P2.9]	> 80		> 80	pest or weed control at 400 ppm [5]: > 80%
CON1CCC2(CC1)C(O)=C(c1c(C)cc(C)cc1C)C(=O)N2C1CC1 [P2.10]	> 80			
CCN1C(=O)C(c2c(C)cc(C)cc2C)=C(O)C12CCN(OC)CC2 [P2.11]				melting point: 218 to 221 °C
CON1CCC2(CC1)C(O)=C(c1c(F)ccc(C)c1Cl)C(=O)N2C [P2.13]			> 80	
CON1CCC2(CC1)C(O)=C(c1c(C)cc(C)cc1Br)C(=O)N2C [P2.14]	> 80		> 80	pest or weed control at 25 ppm [2]: > 80%; pest or weed control at 400 ppm [3]: > 80%; pest or weed control at 400 ppm [4]: > 80%; pest or weed control at 400 ppm [7]: > 80%
CON1CCC2(CC1)C(O)=C(c1cc(C)c(Cl)cc1C)C(=O)N2C [P2.15]			> 80	
CON1CCC2(CC1)C(O)=C(c1c(C)cc(Br)cc1C)C(=O)N2C [P2.16]	> 80	≥ 80		pest or weed control at 400 ppm [5]: > 80%
CON1CCC2(CC1)C(O)=C(c1c(C)cccc1C)C(=O)N2C [P2.17]	> 80	≥ 80		
COCCCN1C(=O)C(c2c(C)cc(C)cc2C)=C(O)C12CCN(OC)CC2 [P2.20]	> 80		> 80	pest or weed control at 400 ppm [9]: > 80%; pest or weed control at 400 ppm [5]: > 80%
COCOCCN1C(=O)C(c2c(C)cc(C)cc2C)=C(O)C12CCN(OC)CC2 [P2.21]	> 80	≥ 80	> 80	pest or weed control at 400 ppm [5]: > 80%
CON1CCC2(CC1)C(O)=C(c1cc(C)c(C)cc1Br)C(=O)N2C [P2.23]				melting point: 191 to 193 °C
CON1CCC2(CC1)C(O)=C(c1c(C)ccc(C)c1C)C(=O)N2C [P2.24]		≥ 80		
CON1CCC2(CC1)C(O)=C(c1cc(C)c(C)cc1C)C(=O)N2C [P2.25]				melting point: 183 to 186 °C
CON1CCC2(CC1)C(O)=C(c1cc(C)c(C)cc1Cl)C(=O)N2C [P2.26, 3-(2-Chloro-4,5-dimethyl-phenyl)-4-hydroxy-8-methoxy-1-methyl-1,8-diaza-spiro[4.5]dec-3-en-2-one]				melting point: 191 to 192 °C
CON1CCC2(CC1)C(O)=C(c1c(C)ccc(Cl)c1C)C(=O)N2C [P2.27]		≥ 80		
CON1CCC2(CC1)C(O)=C(c1c(C)cc(C)cc1C)C(=O)N2CC1(C)COC1 [P2.30]		≥ 80		
CON1CCC2(CC1)C(O)=C(c1c(C)cc(C)c(Cl)c1C)C(=O)N2C [P2.31]	> 80	≥ 80	> 80	pest or weed control at 400 ppm [5]: > 80%
CON1CCC2(CC1)C(O)=C(c1c(C)cc(C)cc1C)C(=O)N2CC1CCCO1 (centres unmarked) [P2.32]			> 80	
CON1CCC2(CC1)C(O)=C(c1c(C)cc(Cl)cc1C)C(=O)N2C [P2.33]	> 80	≥ 80		
CON1CCC2(CC1)C(O)=C(c1c(C)cc(Br)cc1Cl)C(=O)N2C [P2.34]		≥ 80		
COc1cc(COC2=C(c3cc(C)ccc3C)C(=O)NC23CCN(OC)CC3)cc(OC)c1OC [P3.1]				pest or weed control at 400 ppm [9]: > 80%
COc1ccc(COC2=C(c3cc(C)ccc3C)C(=O)NC23CCN(OC)CC3)cc1 [P3.2]				pest or weed control at 400 ppm [9]: > 80%
CON1CCC2(CC1)NC(=O)C(c1c(C)cc(C)cc1C)=C2OCc1ccccc1 [P3.4, 4-benzyloxy-8-methoxy-3-(2,4,6-trimethyl-phenyl)-1,8-diaza-spiro[4.5]dec-3-en-2-one]			> 80	pest or weed control at 400 ppm [9]: > 80%
CON1CCC2(CC1)C(OCc1ccccc1)=C(c1c(C)cc(C)cc1C)C(=O)N2CC1CC1 [P3.8, 4-benzyloxy-1-cyclopropylmethyl-8-methoxy-3-(2,4,6-trimethyl-phenyl)-1,8-diaza-spiro[4.5]dec-3-en-2-one]			> 80	

From patent US9067892B2, “Spiroheterocyclic N-oxypiperidines as pesticides” (Syngenta Crop Protection, Inc., priority 2008, dated 2015)
